Assay results: patent EP0479121A1, “Skin treatment compositions containing beta-phosphatidyl choline derivatives” (FIDIA S.p.A., priority 1990, dated 1992)

Columns and labels:
[1] = Emulsion stability under centrifuging at 6000 r.p.m. (Test 2); format: physicochemical; details: 250 mg in 10 g water added to 90 g standard emulsion, phase separation noted
Experimental: To evaluate the influence of β-phosphatidyl choline derivatives on emulsion stability, a standard emulsion was prepared having the following composition (Table 2):
The aqueous phase heated to 70°C is slowly added to the oil phase heated to 75°C. Rapid agitation is effected by a Silverson laboratory mixer equipped with an emulsifying head and is continued for about 30 minutes, slowly cooling the formed emulsion to ambient temperature.
250 mg of each of the considered β-lecithins dispersed or dissolved in 10 g of water are added under slow agitation to 90 g of the standard emulsion obtained.
The resultant emulsions are tested for stability by subjecting them to centrifuging at 6000 r.p.m. for 10, 30 and 60 minutes respectively, and by storing them under temperature control at 45°C for 72 hours. In both cases the stability is evaluated by noting any phase separation.

stratum corneum = assay: In vivo hydration tests on human volunteers, Corneometer (Test 3); details: 50 mg cream on volar forearm (20 cm²), average of 10 subjects, lower numbers = higher hydration, before application 241±21; for Measured hydration values, 30': 30 min after application; for Measured hydration values, 150': 150 min after application; for Measured hydration values, 270': 270 min after application
Experimental: The hydration tests were conducted using a Corneometer laboratory instrument equipped with a capacitive probe able to measure the moisture present on the stratum corneum. To conduct the test, 50 mg of standard cream and cream containing the various synthetic β-lecithins prepared as Examples 1 and 2 are applied to the volar surface of the forearm (20 cm² ) with light circular massage.
The hydration measurements were taken before applying the product and 30 min, 150 min and 270 min after its application. The hydration values are expressed in arbitrary units deriving from electrical impedance measurements on the cutaneous surface. Although the values are relative they are in inverse linear relationship to the absolute water quantity present in the cutaneous layer of the skin (lower numbers correspond to higher hydration).

Row | Stability under centrifuging at 6000 r.p.m., 10 min ([1]; 10 min) | Stability under centrifuging at 6000 r.p.m., 30 min ([1]; 30 min) | Stability under centrifuging at 6000 r.p.m., 60 min ([1]; 60 min) | SMILES | Measured hydration values, 30' (stratum corneum) | Measured hydration values, 150' (stratum corneum) | Measured hydration values, 270' (stratum corneum)
1 | Stable | Stable | Stable | CCCCCCCCCCCCCCCC(=O)OCC(COC(=O)CCCCCCCCCCCCCCC)OP(=O)([O-])OCC[N+](C)(C)C [PCS1, 1,3-dipalmitoylglycero-2-phosphoryl choline] | 165±10 arbitrary units | 195±15 arbitrary units | 213±15 arbitrary units
2 |  |  |  | CCCCCCCCCCCCCC(=O)OCC(COC(=O)CCCCCCCCCCCCC)OP(=O)([O-])OCC[N+](C)(C)C [PCS2, 1,3-dimyristoylglycero-2-phosphoryl choline] | 147±11 arbitrary units | 175±10 arbitrary units | 195±9 arbitrary units
3 |  |  |  | CC(C)(C)C(=O)OCC(COC(=O)C(C)(C)C)OP(=O)([O-])OCC[N+](C)(C)C [PCS3, 1,3-dipivaloylglycero-2-phosphoryl choline] | 157±7 arbitrary units | 193±13 arbitrary units | 206±9 arbitrary units
4 |  |  |  | CCCCCCCCCCCCCCCCCC(=O)OCC(COC(=O)CCCCCCCCCCCCCCCCC)OP(=O)([O-])OCC[N+](C)(C)C [PCS4, 1,3-distearoylglycero-2-phosphoryl choline] | 132±12 arbitrary units | 161±11 arbitrary units | 180±12 arbitrary units
5 |  |  |  | COc1cc(C(=O)OCC(COC(=O)c2cc(OC)c(OC)c(OC)c2)OP(=O)([O-])OCC[N+](C)(C)C)cc(OC)c1OC [PCS5, 1,3-di(3,4,5-trimethoxybenzoyl)glycero-2-phosphoryl choline] | 124±14 arbitrary units | 144±16 arbitrary units | 177±15 arbitrary units
